Measurements as given in ChEMBL document CHEMBL1130694, “Selective chemical modifications of polymyxin B” (Bioorg Med Chem Lett, 1998).
Converted amounts (≈) assume the structure as drawn.

Tests used:
Escherichia coli = test: Compound was tested for antibacterial activity against Escherichia coli organism; assay type: functional
Mus musculus = species: Mus musculus; test: Compound was tested for protection against Pseudomonas infection in mice; assay type: functional; details: read-out: PD50
Pseudomonas = test: Compound was tested for antibacterial activity against Pseudomonas organism; assay type: functional
Staphylococcus = test: Compound was tested for antibacterial activity against Staphylococcus organism; assay type: functional
[1] = Compound was tested for acute toxicity in mice upon intravenous administration; assay type: organism-based; details: mouse, in vivo
[2] = Ratio of LD50 to PD50 was evaluated.; assay type: ADME, organism-based; details: mouse, in vivo

SMILES	MIC (Escherichia coli) [µg/mL]	ED50 (Mus musculus) [mg/kg]	MIC (Pseudomonas) [µg/mL]	MIC (Staphylococcus) [µg/mL]	LD50 [1] [mg/kg]	selectivity ratio [2]
CC(C)CCCCC(=O)N[C@@H](CCN)C(=O)N[C@H](C(=O)N[C@@H](CCN)C(=O)N[C@H]1CCNC(=O)[C@H]([C@@H](C)O)NC(=O)[C@H](CCNC(=O)[C@@H](N)C[C@H](CCN)C(=O)OCc2ccccc2)NC(=O)[C@H](CCN)NC(=O)[C@H](CC(C)C)NC(=O)[C@@H](Cc2ccccc2)NC(=O)[C@H](CCN)NC1=O)[C@@H](C)O	0.146 (≈ 0.101 µM)	2	0.087 (≈ 0.0599 µM)	0.445 (≈ 0.307 µM)	13	6.5
CC(C)CCCCC(=O)N[C@@H](CCN)C(=O)N[C@H](C(=O)N[C@@H](CCN)C(=O)N[C@H]1CCNC(=O)[C@H]([C@@H](C)O)NC(=O)[C@H](CCNC(=O)[C@@H](N)Cc2ccc(O)cc2)NC(=O)[C@H](CCN)NC(=O)[C@H](CC(C)C)NC(=O)[C@@H](Cc2ccccc2)NC(=O)[C@H](CCN)NC1=O)[C@@H](C)O	0.175 (≈ 0.129 µM)	2.2	0.073 (≈ 0.054 µM)	2.2 (≈ 1.63 µM)	19	8.6
